The results in this text go back to US12581252B2, “Substituted pyrrolo[3,4-b]pyridines as PI3K-α inhibitors” (Relay Therapeutics, Inc., priority 2020, dated 2026).

Chain of H1047R PIK3CA enzyme (P42336 whole entry H1047R): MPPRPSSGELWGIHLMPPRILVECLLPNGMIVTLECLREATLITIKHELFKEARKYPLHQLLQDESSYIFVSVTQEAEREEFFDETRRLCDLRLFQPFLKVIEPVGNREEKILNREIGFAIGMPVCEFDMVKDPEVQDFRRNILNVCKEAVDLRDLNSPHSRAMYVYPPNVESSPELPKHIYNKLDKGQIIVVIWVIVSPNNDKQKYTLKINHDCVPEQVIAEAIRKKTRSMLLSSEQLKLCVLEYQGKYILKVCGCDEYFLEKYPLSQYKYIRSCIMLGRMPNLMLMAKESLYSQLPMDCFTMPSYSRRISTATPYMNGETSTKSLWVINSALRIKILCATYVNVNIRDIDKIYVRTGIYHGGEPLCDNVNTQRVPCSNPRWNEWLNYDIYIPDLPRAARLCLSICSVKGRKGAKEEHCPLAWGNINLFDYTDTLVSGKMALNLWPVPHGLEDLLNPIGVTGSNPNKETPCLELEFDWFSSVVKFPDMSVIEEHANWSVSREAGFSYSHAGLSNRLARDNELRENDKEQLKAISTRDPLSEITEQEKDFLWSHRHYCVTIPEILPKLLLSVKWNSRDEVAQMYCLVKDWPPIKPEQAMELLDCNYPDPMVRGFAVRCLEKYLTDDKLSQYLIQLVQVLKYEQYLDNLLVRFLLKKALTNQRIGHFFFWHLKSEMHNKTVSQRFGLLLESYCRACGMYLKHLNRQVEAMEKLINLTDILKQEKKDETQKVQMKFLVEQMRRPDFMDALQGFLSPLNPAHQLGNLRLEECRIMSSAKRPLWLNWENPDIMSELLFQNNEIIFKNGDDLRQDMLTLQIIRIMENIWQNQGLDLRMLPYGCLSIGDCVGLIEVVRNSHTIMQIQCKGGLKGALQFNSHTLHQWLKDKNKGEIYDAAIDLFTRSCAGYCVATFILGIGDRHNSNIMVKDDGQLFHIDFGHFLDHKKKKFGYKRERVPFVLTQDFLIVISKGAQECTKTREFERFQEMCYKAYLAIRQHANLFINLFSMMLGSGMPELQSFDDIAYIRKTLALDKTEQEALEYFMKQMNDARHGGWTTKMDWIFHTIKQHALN
Chain of H1047R PIK3CA enzyme (P27986 whole entry partner): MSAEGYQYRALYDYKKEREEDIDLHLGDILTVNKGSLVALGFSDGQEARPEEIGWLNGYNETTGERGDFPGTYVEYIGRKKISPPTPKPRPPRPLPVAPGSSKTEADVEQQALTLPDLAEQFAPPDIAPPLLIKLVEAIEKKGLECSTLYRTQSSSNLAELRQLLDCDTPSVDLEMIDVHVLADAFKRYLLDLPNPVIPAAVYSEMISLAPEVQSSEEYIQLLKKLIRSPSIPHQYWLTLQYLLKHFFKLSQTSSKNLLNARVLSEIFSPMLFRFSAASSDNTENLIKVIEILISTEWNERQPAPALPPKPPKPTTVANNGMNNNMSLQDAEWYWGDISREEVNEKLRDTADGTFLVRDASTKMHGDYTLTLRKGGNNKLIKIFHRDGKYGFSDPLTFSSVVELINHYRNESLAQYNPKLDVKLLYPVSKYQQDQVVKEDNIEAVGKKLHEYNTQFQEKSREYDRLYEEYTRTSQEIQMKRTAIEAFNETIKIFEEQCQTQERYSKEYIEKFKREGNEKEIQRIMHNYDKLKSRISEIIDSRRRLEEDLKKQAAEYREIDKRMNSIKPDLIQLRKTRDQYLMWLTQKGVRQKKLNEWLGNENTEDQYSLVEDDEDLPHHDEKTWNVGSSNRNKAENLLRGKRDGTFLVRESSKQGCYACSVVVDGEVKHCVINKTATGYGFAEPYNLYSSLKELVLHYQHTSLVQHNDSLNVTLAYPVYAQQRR

This experiment has as its target H1047R PIK3CA enzyme (Homo sapiens, UniProt P42336, H1047R). In words: ADP-Glo Biochemical PIK3CA Kinase Assay.
Consider `O=C(Nc1cc(-c2ccc3nc(Cl)nn3c2)cc2c1[C@@H](c1cc(F)ccc1Cl)NC2=O)c1cc(F)cc(C(F)(F)F)c1` [Compound I-1692], for which the IC50 was in the range of 1 to 10 µM.
As to `O=C(Nc1cc(-c2ccc3nc(Cl)nn3c2)cc2c1[C@H](c1cc(F)ccc1Cl)NC2=O)c1cc(F)cc(C(F)(F)F)c1` [Compound I-1693], the IC50 is no more than 0.1 µM.
Consider `O=C(Nc1cc(-c2ccc3ncc(Cl)n3c2)cc2c1C(c1cc(F)ccc1Cl)NC2=O)c1cc(F)cc(C(F)(F)F)c1` (stereo not shown) [Compound I-1694], for which the IC50 is no more than 0.1 µM.
In the case of `O=C(Nc1cc(-c2ccn3nc(Cl)nc3c2)cc2c1[C@@H](c1cc(F)ccc1Cl)NC2=O)c1cc(F)cc(C(F)(F)F)c1` [Compound I-1695], the IC50 was in the range of 1 to 10 µM.
In turn, `O=C(Nc1cc(-c2ccc3nc(Cl)cn3c2)cc2c1C(c1cc(F)ccc1Cl)NC2=O)c1cc(F)cc(C(F)(F)F)c1` (stereo not shown) [Compound I-1696] had an IC50 of no more than 0.1 µM.
In turn, `O=C(Nc1cc(-c2ccn3nc(Cl)nc3c2)cc2c1[C@H](c1cc(F)ccc1Cl)NC2=O)c1cc(F)cc(C(F)(F)F)c1` [Compound I-1697] gave an IC50 of no more than 0.1 µM.
`O=C(Nc1cc(-c2ccn3ncnc3c2F)cc2c1C(c1cc(F)ccc1Cl)NC2=O)c1cc(F)cc(C(F)(F)F)c1` (stereo not shown) [Compound I-1698] returned an IC50 of no more than 0.1 µM.
With `Cn1ncc(-c2cc(NC(=O)c3cc(F)cc(C(F)(F)F)c3)c3c(c2)C(=O)NC3c2cc(F)ccc2Cl)c1C#N` (stereo not shown) [Compound I-1699], the IC50 is no more than 0.1 µM.
`COc1cc2ncnn2cc1-c1cc(NC(=O)c2cc(F)cc(C(F)(F)F)c2)c2c(c1)C(=O)NC2c1cc(F)ccc1Cl` (stereo not shown) [Compound I-1700] showed an IC50 of no more than 0.1 µM.
In turn, `O=C(Nc1cc(-c2cc(F)c3ncnn3c2)cc2c1[C@@H](c1cc(F)ccc1Cl)NC2=O)c1cc(F)cc(C(F)(F)F)c1` [Compound I-1703] showed an IC50 of 10 to 100 µM.
The compound `O=C(Nc1cc(-c2cc(F)c3ncnn3c2)cc2c1[C@H](c1cc(F)ccc1Cl)NC2=O)c1cc(F)cc(C(F)(F)F)c1` [Compound I-1704] returned an IC50 of no more than 0.1 µM.
Compound `O=C(Nc1cc(-c2ccc3ncnn3c2)nc2c1C(C1CCOCC1)NC2=O)c1cc(F)cc(C(F)(F)F)c1` (stereo not shown) [Compound I-1705] displayed an IC50 of 10 to 100 µM.
For the compound `O=C(Nc1cc(-c2ccc3ncnn3c2)nc2c1C(C1CCCCO1)NC2=O)c1cc(F)cc(C(F)(F)F)c1` (stereo not shown) [Compound I-1706], the half-maximal inhibitory concentration (IC50) lay within 10 to 100 µM.
`N#Cc1nc2ccc(-c3cc(NC(=O)c4cc(F)cc(C(F)(F)F)c4)c4c(c3)C(=O)NC4c3cc(F)ccc3Cl)cn2n1` (stereo not shown) [Compound I-1707] gave an IC50 of no more than 0.1 µM.
The result for `N#Cc1nnc2ccc(-c3cc(NC(=O)c4cc(F)cc(C(F)(F)F)c4)c4c(c3)C(=O)NC4c3cc(F)ccc3Cl)cn12` (stereo not shown) [Compound I-1708] reads no more than 0.1 µM.
With `O=C1NC(c2cc(F)ccc2Cl)c2c1cccc2-n1[nH]c(=O)c2ccccc21` (stereo not shown) [Compound I-1714] the figure was 10 to 100 µM; with `O=C1NC(c2cc(F)ccc2Cl)c2c(NC(=O)N3CCc4ccc(F)cc43)cc(Br)cc21` (stereo not shown) [Compound I-1717], no more than 0.1 µM.
With `O=C1NC(c2cc(F)ccc2Cl)c2c(NC(=O)N3CCC(O)C3)cc(-c3ccc4ncnn4c3)cc21` (stereo not shown) [Compound I-1718], the IC50 was 10 to 100 µM.
Turning to `N#Cc1cn(Cc2cc(NC(=O)c3cc(F)cc(C(F)(F)F)c3)c3c(c2)C(=O)NC3c2cc(F)ccc2Cl)cn1` (stereo not shown) [Compound I-1719], the IC50 was no more than 0.1 µM.
The result for `O=C1NC(c2cc(F)ccc2Cl)c2c(NC(=O)N3CCCC3)cc(-c3ccc4ncnn4c3)cc21` (stereo not shown) [Compound I-1720] reads 10 to 100 µM; that for `O=C1NC(c2cc(F)ccc2Cl)c2c(NC(=O)N3CCCC(O)C3)cc(-c3ccc4ncnn4c3)cc21` (stereo not shown) [Compound I-1721], 10 to 100 µM; that for `O=C1NC(c2cc(F)ccc2Cl)c2c(NC(=O)N3CCC4(C3)CC4(F)F)cc(-c3ccc4ncnn4c3)cc21` (stereo not shown) [Compound I-1722], 1 to 10 µM.
With `O=C1NC(c2cc(F)ccc2Cl)c2c(NC(=O)C3CCCC(O)C3)cc(-c3ccc4ncnn4c3)cc21` (stereo not shown) [Compound I-1723] the figure was 10 to 100 µM.
The compound `O=C1NC(c2cc(F)ccc2Cl)c2c(NC(=O)C(O)c3ccccc3)cc(-c3ccc4ncnn4c3)cc21` (stereo not shown) [Compound I-1724] returned an IC50 of 10 to 100 µM.
As for `O=C1NC(c2cc(F)ccc2Cl)c2c(Nc3ccc4ccccc4c3)cc(Br)cc21` (stereo not shown) [Compound I-1725], the IC50 fell in the range of 1 to 10 µM.
As to `O=C1NC(c2cc(F)ccc2Cl)c2c(NCC3CCCCC3)cc(Br)cc21` (stereo not shown) [Compound I-1726], the IC50 is 10 to 100 µM.
As for `O=C1NC(c2cc(F)ccc2Cl)c2c(Nc3nc4ccccc4[nH]3)cc(-c3ccc4ncnn4c3)cc21` (stereo not shown) [Compound I-1727], the IC50 fell in the range of 1 to 10 µM.
With `O=C1NC(c2cc(F)ccc2Cl)c2c(CS(=O)(=O)c3ccccc3)cc(-c3ccc4ncnn4c3)cc21` (stereo not shown) [Compound I-1728] the figure was 10 to 100 µM; with `O=C1NC(c2cc(F)ccc2Cl)c2c1cc(-c1ccc3ncnn3c1)cc2-c1ccc2ccccc2c1` (stereo not shown) [Compound I-1729], 1 to 10 µM.
Regarding `O=C(Nc1cc(-c2ccc3ncnn3c2)cc2c1C(c1cc(F)ccc1Cl)NC2=O)C(=O)c1ccccc1` (stereo not shown) [Compound I-1730], the IC50 is 1 to 10 µM.
In turn, `O=C(Nc1cccc2c1C(C1CCC1)NC2=O)c1cc(F)cc(C(F)(F)F)c1` (stereo not shown) [Compound I-1731] displayed an IC50 of 10 to 100 µM.
With `O=C(Nc1cccc2c1C(CC1CCCCC1)NC2=O)c1cc(F)cc(C(F)(F)F)c1` (stereo not shown) [Compound I-1732] the figure was 1 to 10 µM; with `O=C(Nc1cc(-c2ccc3nnc(Cl)n3c2)cc2c1[C@H](c1cc(F)ccc1Cl)NC2=O)c1cc(F)cc(C(F)(F)F)c1` [Compound I-1734], no more than 0.1 µM.
Take `O=C(Nc1cc(OCc2cncnc2)cc2c1C(c1cc(F)ccc1Cl)NC2=O)c1cc(F)cc(C(F)(F)F)c1` (stereo not shown) [Compound I-1735]: the IC50 was no more than 0.1 µM.
As for `Nc1ccc(COc2cc(NC(=O)c3cc(F)cc(C(F)(F)F)c3)c3c(c2)C(=O)NC3c2cc(F)ccc2Cl)cn1` (stereo not shown) [Compound I-1736], the 50% inhibitory concentration (IC50) is no more than 0.1 µM.
In the case of `Cn1cc(-c2cc(NC(=O)c3cc(F)cc(C(F)(F)F)c3)c3c(c2)C(=O)N[C@@H]3c2cc(F)ccc2Cl)c(C#N)n1` [Compound I-1737], the IC50 was in the range of 10 to 100 µM.
`Cn1cc(-c2cc(NC(=O)c3cc(F)cc(C(F)(F)F)c3)c3c(c2)C(=O)N[C@H]3c2cc(F)ccc2Cl)c(C#N)n1` [Compound I-1738] returned an IC50 of no more than 0.1 µM.
In turn, `N#Cc1nc2cc(-c3cc(NC(=O)c4cc(F)cc(C(F)(F)F)c4)c4c(c3)C(=O)NC4c3cc(F)ccc3Cl)ccn2n1` (stereo not shown) [Compound I-1741] came in with a concentration for half-maximal inhibition (IC50) of no more than 0.1 µM.
The result for `O=C1NC(c2cc(F)ccc2Cl)c2c1cc(-c1ccc3ncnn3c1)cc2S(=O)(=O)Cc1ccccc1` (stereo not shown) [Compound I-1742] reads 1 to 10 µM; that for `CC(=O)N1CCCC(C(=O)Nc2cc(-c3ccc4ncnn4c3)cc3c2C(c2cc(F)ccc2Cl)NC3=O)C1` (stereo not shown) [Compound I-1743], 10 to 100 µM.
`CC(=O)N1CCC(C(=O)Nc2cc(-c3ccc4ncnn4c3)cc3c2C(c2cc(F)ccc2Cl)NC3=O)CC1` (stereo not shown) [Compound I-1744]: the IC50 is 10 to 100 µM.
For the compound `O=C(Nc1cc(Br)cc2c1C(c1cc(F)ccc1Cl)NC2=O)c1cc(F)cc(CC(F)F)c1` (stereo not shown) [Compound I-1745], the IC50 fell in the range of 1 to 10 µM.
Compound `O=C1NC(c2cc(F)ccc2Cl)c2c1cccc2N1Cc2ccccc2CC1=O` (stereo not shown) [Compound I-1746] yielded an IC50 of 10 to 100 µM.
For `O=C(Nc1cccc2c1C(C1CCCNC1)NC2=O)c1cc(F)cc(C(F)(F)F)c1` (stereo not shown) [Compound I-1747], the IC50 lay in the range of 10 to 100 µM.
The result for `O=C1NC(c2cc(F)ccc2Cl)c2c(NC(=O)C3CCCC(F)(F)C3)cc(-c3ccc4ncnn4c3)cc21` (stereo not shown) [Compound I-1750] reads 1 to 10 µM.
Consider `O=C1NC(c2cc(F)ccc2Cl)c2c(NC(=O)C3CCNCC3)cc(-c3ccc4ncnn4c3)cc21` (stereo not shown) [Compound I-1751], for which the IC50 was 10 to 100 µM.
In turn, `O=C(Nc1cccc2c1[C@H]([C@@H]1CCCC(F)(F)C1)NC2=O)c1cc(F)cc(C(F)(F)F)c1` [Compound I-1752] registered an IC50 of 1 to 10 µM.
For `O=C1NC(c2cc(F)ccc2Cl)c2c(NC(=O)N3CC4CC(F)(C4)C3)cc(Br)cc21` (stereo not shown) [Compound I-1753], the IC50 was in the range of 10 to 100 µM.
For `O=C1NC(c2cc(F)ccc2Cl)c2c(NC(=O)N3CC4CCC4(C(F)(F)F)C3)cc(Br)cc21` (stereo not shown) [Compound I-1754], the 50% inhibitory concentration (IC50) was 1 to 10 µM.
In the case of `O=C(Nc1cc(Br)cc2c1C(c1cc(F)ccc1Cl)NC2=O)NC1(CC(F)(F)F)CC1` (stereo not shown) [Compound I-1755], the IC50 was 10 to 100 µM.
On to `O=C1NC(c2cc(F)ccc2Cl)c2c(NC(=O)N3CCC4C(C3)C4C(F)(F)F)cc(Br)cc21` (stereo not shown) [Compound I-1756], for which the IC50 lay within 1 to 10 µM.
The result for `CC(C)(CC(=O)Nc1cc(Br)cc2c1C(c1cc(F)ccc1Cl)NC2=O)C(F)(F)F` (stereo not shown) [Compound I-1757] reads 10 to 100 µM; that for `CN1CCC(C(=O)Nc2cc(-c3ccc4ncnn4c3)cc3c2C(c2cc(F)ccc2Cl)NC3=O)CC1` (stereo not shown) [Compound I-1758], 10 to 100 µM; that for `NC1CCC(C(=O)Nc2cc(-c3ccc4ncnn4c3)cc3c2C(c2cc(F)ccc2Cl)NC3=O)CC1` (stereo not shown) [Compound I-1759], 10 to 100 µM.
Compound `O=C(Nc1cc(-c2ccc3ncnn3c2)cc2c1C(c1cc(F)ccc1Cl)NC2=O)C(=NO)c1ccccc1` (stereo not shown) [Compound I-1760] came in with an IC50 of 10 to 100 µM.
The compound `O=C(Nc1cccc2c1C(CN1CCCC1)NC2=O)c1cc(F)cc(C(F)(F)F)c1` (stereo not shown) [Compound I-1761] yielded an IC50 of 10 to 100 µM.
With `N#Cc1cnn2ccc(-c3cc(NC(=O)c4cc(F)cc(C(F)(F)F)c4)c4c(c3)C(=O)NC4c3cc(F)ccc3Cl)cc12` (stereo not shown) [Compound I-1762], the IC50 was no more than 0.1 µM.
`O=C(Nc1cc(-c2ccn3nccc3n2)cc2c1C(c1cc(F)ccc1Cl)NC2=O)c1cc(F)cc(C(F)(F)F)c1` (stereo not shown) [Compound I-1763] came in with an IC50 of no more than 0.1 µM.
The compound `O=C(Nc1cc(-c2ccn3ncnc3c2F)cc2c1[C@@H](c1cc(F)ccc1Cl)NC2=O)c1cc(F)cc(C(F)(F)F)c1` [Compound I-1764] came in with a concentration for half-maximal inhibition (IC50) of 1 to 10 µM.
With `O=C(Nc1cc(-c2ccn3ncnc3c2F)cc2c1[C@H](c1cc(F)ccc1Cl)NC2=O)c1cc(F)cc(C(F)(F)F)c1` [Compound I-1765] the figure was no more than 0.1 µM.
`CC1(C)CC1C1NC(=O)c2cccc(NC(=O)c3cc(F)cc(C(F)(F)F)c3)c21` (stereo not shown) [Compound I-1766] returned an IC50 of 1 to 10 µM.
